Source: patent US20240027453A1, “METHOD FOR DETECTION AND QUANTITATIVE MONITORING OF INFECTIONS WITH HERPESVIRUSES” (The Trustees of Princeton University, priority 2020, published 2024)
Where two headings read alike, the source gives them in different places.

Tested on: HCMV
Type: cell-based
Conditions: for UL36 (P16767) protein, numerical value of heatmap FIG. 6C / UL37 (P16778) protein, numerical value of heatmap FIG. 6C / UL122 (P19893) protein, numerical value of heatmap FIG. 6C / UL123 (P13202) protein, numerical value of heatmap FIG. 6C / IRS1 (P09715) protein, numerical value of heatmap FIG. 6C / TRS1 (P09695) protein, numerical value of heatmap FIG. 6C / UL13 (P16755) protein, numerical value of heatmap FIG. 6C: IE; for MCP (P16729) protein, numerical value of heatmap FIG. 6C / UL25 (P16761) protein, numerical value of heatmap FIG. 6C / UL29 (P16764) protein, numerical value of heatmap FIG. 6C / UL31 (P16848) protein, numerical value of heatmap FIG. 6C / UL43 (P16781) protein, numerical value of heatmap FIG. 6C / UL52 (P16793) protein, numerical value of heatmap FIG. 6C / UL80 (P16753) protein, numerical value of heatmap FIG. 6C / UL82 (P06726) protein, numerical value of heatmap FIG. 6C / UL94 (P16800) protein, numerical value of heatmap FIG. 6C / UL99 (P13200) protein, numerical value of heatmap FIG. 6C / UL103 (P16734) protein, numerical value of heatmap FIG. 6C / UL117 (P16770) protein, numerical value of heatmap FIG. 6C / gH (P12824) protein, numerical value of heatmap FIG. 6C / gL (P16832) protein, numerical value of heatmap FIG. 6C / gM (P16733) protein, numerical value of heatmap FIG. 6C / sp|P16809|IR11_HCMVA (P16809) protein, numerical value of heatmap FIG. 6C / CVC1 (P16799) protein, numerical value of heatmap FIG. 6C / TRM2 (P16792) protein, numerical value of heatmap FIG. 6C / UL22A (P16845) protein, numerical value of heatmap FIG. 6C / UL88 (P16731) protein, numerical value of heatmap FIG. 6C / gN (P16795) protein, numerical value of heatmap FIG. 6C / GO (P16750) protein, numerical value of heatmap FIG. 6C / SCP (Q7M6N6) protein, numerical value of heatmap FIG. 6C / UL30 (P16765) protein, numerical value of heatmap FIG. 6C / UL76 (P16725) protein, numerical value of heatmap FIG. 6C / UL79 (P16752) protein, numerical value of heatmap FIG. 6C: L
In short: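 MRC5 human fibroblasts treated with compound or DMSO/PBS 12 h before infection with HSV-1 17+ or HCMV AD169 at MOI 3, drug re-added every 24 h. Viral proteins quantified by targeted PRM LC-MS/MS of tryptic peptides, summed 3-4 transitions, normalized to host loading-control peptides and scaled to each peptide's average across runs.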

Q: Which results are given for `Nc1ccn(C[C@@H](CO)OCP(=O)(O)O)c(=O)n1` [CDV, cidofovir]?
A: UL36 (P16767) protein, numerical value of heatmap FIG. 6C (timepoint 48): 0.9304; UL37 (P16778) protein, numerical value of heatmap FIG. 6C (timepoint 48): 0.8657; UL122 (P19893) protein, numerical value of heatmap FIG. 6C (timepoint 48): 0.07563; UL123 (P13202) protein, numerical value of heatmap FIG. 6C (timepoint 48): 0.8515; IRS1 (P09715) protein, numerical value of heatmap FIG. 6C (timepoint 72): 1.017; TRS1 (P09695) protein, numerical value of heatmap FIG. 6C (timepoint 72): 0.9014; UL13 (P16755) protein, numerical value of heatmap FIG. 6C (timepoint 72): 0.8575; UL36 (P16767) protein, numerical value of heatmap FIG. 6C (timepoint 72): 0.8818; UL37 (P16778) protein, numerical value of heatmap FIG. 6C (timepoint 72): 1.038; UL122 (P19893) protein, numerical value of heatmap FIG. 6C (timepoint 72): 0.3738; UL123 (P13202) protein, numerical value of heatmap FIG. 6C (timepoint 72): 0.7924; IRS1 (P09715) protein, numerical value of heatmap FIG. 6C (timepoint 96): 0.9536; TRS1 (P09695) protein, numerical value of heatmap FIG. 6C (timepoint 96): 0.7893; UL13 (P16755) protein, numerical value of heatmap FIG. 6C (timepoint 96): 0.7965; UL36 (P16767) protein, numerical value of heatmap FIG. 6C (timepoint 96): 0.834; UL37 (P16778) protein, numerical value of heatmap FIG. 6C (timepoint 96): 0.936; UL122 (P19893) protein, numerical value of heatmap FIG. 6C (timepoint 96): 0.8676; UL123 (P13202) protein, numerical value of heatmap FIG. 6C (timepoint 96): 0.7732; IRS1 (P09715) protein, numerical value of heatmap FIG. 6C (timepoint 120): 1.003; TRS1 (P09695) protein, numerical value of heatmap FIG. 6C (timepoint 120): 1.103; UL13 (P16755) protein, numerical value of heatmap FIG. 6C (timepoint 120): 1.075; UL36 (P16767) protein, numerical value of heatmap FIG. 6C (timepoint 120): 1.234; UL37 (P16778) protein, numerical value of heatmap FIG. 6C (timepoint 120): 1.212; UL122 (P19893) protein, numerical value of heatmap FIG. 6C (timepoint 120): 1.141; UL123 (P13202) protein, numerical value of heatmap FIG. 6C (timepoint 120): 1.074; MCP (P16729) protein, numerical value of heatmap FIG. 6C (timepoint 24): 0.009303; UL25 (P16761) protein, numerical value of heatmap FIG. 6C (timepoint 24): 0.02316; UL29 (P16764) protein, numerical value of heatmap FIG. 6C (timepoint 24): 0.4352; UL31 (P16848) protein, numerical value of heatmap FIG. 6C (timepoint 24): 0.2632; UL43 (P16781) protein, numerical value of heatmap FIG. 6C (timepoint 24): 0.06898; UL52 (P16793) protein, numerical value of heatmap FIG. 6C (timepoint 24): 0.01391; UL80 (P16753) protein, numerical value of heatmap FIG. 6C (timepoint 24): 0.007269; UL82 (P06726) protein, numerical value of heatmap FIG. 6C (timepoint 24): 0.2135; UL94 (P16800) protein, numerical value of heatmap FIG. 6C (timepoint 24): 0.03193; UL99 (P13200) protein, numerical value of heatmap FIG. 6C (timepoint 24): 0.01797; UL103 (P16734) protein, numerical value of heatmap FIG. 6C (timepoint 24): 0.236; UL117 (P16770) protein, numerical value of heatmap FIG. 6C (timepoint 24): 0.1983; gH (P12824) protein, numerical value of heatmap FIG. 6C (timepoint 24): 0.03303; gL (P16832) protein, numerical value of heatmap FIG. 6C (timepoint 24): 0.03204; gM (P16733) protein, numerical value of heatmap FIG. 6C (timepoint 24): 0.0224; sp|P16809|IR11_HCMVA (P16809) protein, numerical value of heatmap FIG. 6C (timepoint 24): 0.04109; CVC1 (P16799) protein, numerical value of heatmap FIG. 6C (timepoint 48): 0.1142; MCP (P16729) protein, numerical value of heatmap FIG. 6C (timepoint 48): 0.01444; TRM2 (P16792) protein, numerical value of heatmap FIG. 6C (timepoint 48): 0.0613; UL22A (P16845) protein, numerical value of heatmap FIG. 6C (timepoint 48): 0.07025; UL25 (P16761) protein, numerical value of heatmap FIG. 6C (timepoint 48): 0.06426; UL29 (P16764) protein, numerical value of heatmap FIG. 6C (timepoint 48): 0.6305; UL31 (P16848) protein, numerical value of heatmap FIG. 6C (timepoint 48): 0.2379; UL43 (P16781) protein, numerical value of heatmap FIG. 6C (timepoint 48): 0.09529; UL52 (P16793) protein, numerical value of heatmap FIG. 6C (timepoint 48): 0.08671; UL80 (P16753) protein, numerical value of heatmap FIG. 6C (timepoint 48): 0.04081; UL82 (P06726) protein, numerical value of heatmap FIG. 6C (timepoint 48): 0.2148; UL88 (P16731) protein, numerical value of heatmap FIG. 6C (timepoint 48): 0.05021; UL94 (P16800) protein, numerical value of heatmap FIG. 6C (timepoint 48): 0.09258; UL99 (P13200) protein, numerical value of heatmap FIG. 6C (timepoint 48): 0.06513; UL103 (P16734) protein, numerical value of heatmap FIG. 6C (timepoint 48): 0.1954; UL117 (P16770) protein, numerical value of heatmap FIG. 6C (timepoint 48): 0.3875; gH (P12824) protein, numerical value of heatmap FIG. 6C (timepoint 48): 0.1304; gL (P16832) protein, numerical value of heatmap FIG. 6C (timepoint 48): 0.06908; gM (P16733) protein, numerical value of heatmap FIG. 6C (timepoint 48): 0.03119; gN (P16795) protein, numerical value of heatmap FIG. 6C (timepoint 48): 0.07597; sp|P16809|IR11_HCMVA (P16809) protein, numerical value of heatmap FIG. 6C (timepoint 48): 0.502; CVC1 (P16799) protein, numerical value of heatmap FIG. 6C (timepoint 72): 0.4079; GO (P16750) protein, numerical value of heatmap FIG. 6C (timepoint 72): 0.601; MCP (P16729) protein, numerical value of heatmap FIG. 6C (timepoint 72): 0.4006; SCP (Q7M6N6) protein, numerical value of heatmap FIG. 6C (timepoint 72): 0.3733; TRM2 (P16792) protein, numerical value of heatmap FIG. 6C (timepoint 72): 0.5505; UL22A (P16845) protein, numerical value of heatmap FIG. 6C (timepoint 72): 0.4199; UL25 (P16761) protein, numerical value of heatmap FIG. 6C (timepoint 72): 0.4606; UL29 (P16764) protein, numerical value of heatmap FIG. 6C (timepoint 72): 0.8549; UL30 (P16765) protein, numerical value of heatmap FIG. 6C (timepoint 72): 0.4115; UL31 (P16848) protein, numerical value of heatmap FIG. 6C (timepoint 72): 0.4223; UL43 (P16781) protein, numerical value of heatmap FIG. 6C (timepoint 72): 0.2402; UL52 (P16793) protein, numerical value of heatmap FIG. 6C (timepoint 72): 0.4658; UL76 (P16725) protein, numerical value of heatmap FIG. 6C (timepoint 72): 0.3035; UL79 (P16752) protein, numerical value of heatmap FIG. 6C (timepoint 72): 0.4713; UL80 (P16753) protein, numerical value of heatmap FIG. 6C (timepoint 72): 0.6581; UL82 (P06726) protein, numerical value of heatmap FIG. 6C (timepoint 72): 0.4947; UL88 (P16731) protein, numerical value of heatmap FIG. 6C (timepoint 72): 0.4289; UL94 (P16800) protein, numerical value of heatmap FIG. 6C (timepoint 72): 0.5474; UL99 (P13200) protein, numerical value of heatmap FIG. 6C (timepoint 72): 0.455; UL103 (P16734) protein, numerical value of heatmap FIG. 6C (timepoint 72): 0.5642; UL117 (P16770) protein, numerical value of heatmap FIG. 6C (timepoint 72): 0.5867; gH (P12824) protein, numerical value of heatmap FIG. 6C (timepoint 72): 0.7542; gL (P16832) protein, numerical value of heatmap FIG. 6C (timepoint 72): 0.5073; gM (P16733) protein, numerical value of heatmap FIG. 6C (timepoint 72): 0.477; gN (P16795) protein, numerical value of heatmap FIG. 6C (timepoint 72): 0.5141; sp|P16809|IR11_HCMVA (P16809) protein, numerical value of heatmap FIG. 6C (timepoint 72): 0.869; CVC1 (P16799) protein, numerical value of heatmap FIG. 6C (timepoint 96): 0.6; GO (P16750) protein, numerical value of heatmap FIG. 6C (timepoint 96): 0.5678; MCP (P16729) protein, numerical value of heatmap FIG. 6C (timepoint 96): 0.8755; SCP (Q7M6N6) protein, numerical value of heatmap FIG. 6C (timepoint 96): 0.678; TRM2 (P16792) protein, numerical value of heatmap FIG. 6C (timepoint 96): 0.8343; UL22A (P16845) protein, numerical value of heatmap FIG. 6C (timepoint 96): 0.5842; UL25 (P16761) protein, numerical value of heatmap FIG. 6C (timepoint 96): 0.8443; UL29 (P16764) protein, numerical value of heatmap FIG. 6C (timepoint 96): 0.8921; UL30 (P16765) protein, numerical value of heatmap FIG. 6C (timepoint 96): 0.5445; UL31 (P16848) protein, numerical value of heatmap FIG. 6C (timepoint 96): 0.6245; UL43 (P16781) protein, numerical value of heatmap FIG. 6C (timepoint 96): 0.7777; UL52 (P16793) protein, numerical value of heatmap FIG. 6C (timepoint 96): 0.8766; UL76 (P16725) protein, numerical value of heatmap FIG. 6C (timepoint 96): 0.421; UL79 (P16752) protein, numerical value of heatmap FIG. 6C (timepoint 96): 0.5586
